Read-outs that look alike come from different tables or passages of the source.
Legend:
Human mTOR (FLAG-TOR) = biological target: T1, Human mTOR (FLAG-TOR) (Homo sapiens, UniProt P42345); assay: Human mTOR kinase assay with purified enzyme, DELFIA format; assay type: biochemical
T1 construct: FLAG
Description: Enzymes are first diluted in kinase assay buffer (10 mM HEPES (pH 7.4), 50 mM NaCl, 50 mM β-glycerophosphate, 10 mM MnCl2, 0.5 mM DTT, 0.25 mM microcystin LR, and 100 mg/mL BSA). To each well, 12 μL of the diluted enzyme is mixed briefly with 0.5 μL test inhibitor or control vehicle dimethylsulfoxide (DMSO). […] The reaction plate is incubated for 2 hours (linear at 1-6 hours) at room temperature with gentle shaking and then terminated by adding 25 μL Stop buffer (20 mM HEPES (pH 7.4), 20 mM EDTA, 20 mM EGTA). […] The DELFIA Assay buffer and Enhancement solution can be purchased from PerkinElmer. 45 μL of the terminated kinase reaction mixture is transferred to a MaxiSorp plate (Nunc) containing 55 μL PBS. The His6-S6K is allowed to attach for 2 hours after which the wells are aspirated and washed once with PBS. 100 μL of DELFIA Assay buffer with 40 ng/mL Eu—P(T389)-S6K antibody is added. The antibody binding is continued for 1 hour with gentle agitation. The wells are then aspirated and washed 4 times with PBS containing 0.05% Tween-20 (PBST). 100 μL of DELFIA Enhancement solution is added to each well and the plates are read in a PerkinElmer Victor model plate reader. Data obtained is used to calculate enzymatic activity and enzyme inhibition by potential inhibitors.

PI3K [1] = biological target: T2, PI3K (Homo sapiens, UniProt P48736); assay: Fluorescence polarization assay for PI3K; assay type: biochemical; details: read-out: PI3 Kinase γ IC50
T2 construct: PI3 Kinase γ IC50; other: PI3 Kinase γ; other: PI3 Kinase γ isoform, fluorescence polarization
Description: (§1) This assay is used to determine the IC50 of compounds of the present invention as it identifies inhibitors of PI3 kinase by measuring inhibition.
(§2) The assay is run by placing 5 μL of diluted enzyme per well, then 5 μL of diluted compound (or 9.5 μL enzyme then 0.5 μL compound in DMSO) is added and mixed. Then, 10 μL substrate is added to start the reaction. The samples are incubated 30-60 minutes, then the reaction is stopped by adding 20 μL stop/detector mix. PI3K is diluted with reaction buffer (e.g., 5 μL or 7.5 μL PI3K into 620 μL reaction buffer), and 5 μL of diluted enzyme is used per well. 5 μL reaction buffer or drug diluted in buffer (e.g., 4 μL/100 so final DMSO is 1% in reaction) is added to each. Pipetting up and down mixes the samples. Alternatively, the enzyme can be diluted to 1215 μL. In this case 9.8 μL is added per well and 0.2 μL compound is added in DMSO. To prepare 1 mL of substrate solution, 955 μL reaction buffer, 40 μL PIP2, and 2.5 μL ATP are mixed. 10 μL of substrate is added to each well to start the reaction.
(§3) Stop/detector mix is prepared by mixing 4 μL Red detector and 1.6 μL or 2.0 μL GST-GRP with 1 mL Stop buffer, which results in 10 nM probe and 70 nM GST-GRP). 20 μL of the stop/detector mix is added to each well to stop the reaction. The plates are read after 30-90 minutes keeping the red probe solutions dark. For the zero time point, stop/detector mix is added to the enzyme just before adding substrate. For an extra control, stop/detector mix is added to buffer (no enzyme) and substrate or to just buffer (no substrate). […] Plates are read on machines with filters for Tamra. The units are mP with no enzyme controls reading app 190-220 mP units. Fully active enzyme reduces fluorescence polarization down to 70-100 mP after 30 minutes.

PI3K [2] = biological target: T3, PI3K (Homo sapiens, UniProt P42336); assay: Fluorescence polarization assay for PI3K; assay type: biochemical; details: read-out: PI3 Kinase α IC50
T3 construct: PI3 Kinase α IC50; other: PI3 Kinase α; other: PI3 Kinase α isoform, fluorescence polarization
Description: as §1, §2, §3

breast line MDA468 = assay: In vitro cell culture growth assay (MTS), MDA468; assay type: cell-based; details: Homo sapiens, 72 h, MDA468 cells, three days after drug treatment
Description: Human tumor cell lines used include prostate lines LNCap and PC3MM2, breast lines MDA468, MCF7, renal line HTB44 (A498), colon line HCT116, and ovarian line OVCAR3. Cells were plated in 96-well culture plates. One day following plating, the inhibitors were added to cells. Three days after drug treatment, viable cell densities were determined by metabolic conversion (by viable cells) of the dye MTS, a well-established cell proliferation assay. The assays were performed using an assay kit purchased from Promega Corp. (Madison, Wis.) following the protocol supplied with the kit. The MTS assay results were read in a 96-well plate reader by measuring absorbance at 490 nm. The effect of each treatment was calculated as percent of control growth relative to the vehicle-treated cells grown in the same culture plate.

[3] = purified human mTOR enzyme, DELFIA format
[4] = PI3 Kinase γ isoform, fluorescence polarization
[5] = PI3 Kinase α isoform, fluorescence polarization

T2 sequence (P48736 whole entry, canonical isoform): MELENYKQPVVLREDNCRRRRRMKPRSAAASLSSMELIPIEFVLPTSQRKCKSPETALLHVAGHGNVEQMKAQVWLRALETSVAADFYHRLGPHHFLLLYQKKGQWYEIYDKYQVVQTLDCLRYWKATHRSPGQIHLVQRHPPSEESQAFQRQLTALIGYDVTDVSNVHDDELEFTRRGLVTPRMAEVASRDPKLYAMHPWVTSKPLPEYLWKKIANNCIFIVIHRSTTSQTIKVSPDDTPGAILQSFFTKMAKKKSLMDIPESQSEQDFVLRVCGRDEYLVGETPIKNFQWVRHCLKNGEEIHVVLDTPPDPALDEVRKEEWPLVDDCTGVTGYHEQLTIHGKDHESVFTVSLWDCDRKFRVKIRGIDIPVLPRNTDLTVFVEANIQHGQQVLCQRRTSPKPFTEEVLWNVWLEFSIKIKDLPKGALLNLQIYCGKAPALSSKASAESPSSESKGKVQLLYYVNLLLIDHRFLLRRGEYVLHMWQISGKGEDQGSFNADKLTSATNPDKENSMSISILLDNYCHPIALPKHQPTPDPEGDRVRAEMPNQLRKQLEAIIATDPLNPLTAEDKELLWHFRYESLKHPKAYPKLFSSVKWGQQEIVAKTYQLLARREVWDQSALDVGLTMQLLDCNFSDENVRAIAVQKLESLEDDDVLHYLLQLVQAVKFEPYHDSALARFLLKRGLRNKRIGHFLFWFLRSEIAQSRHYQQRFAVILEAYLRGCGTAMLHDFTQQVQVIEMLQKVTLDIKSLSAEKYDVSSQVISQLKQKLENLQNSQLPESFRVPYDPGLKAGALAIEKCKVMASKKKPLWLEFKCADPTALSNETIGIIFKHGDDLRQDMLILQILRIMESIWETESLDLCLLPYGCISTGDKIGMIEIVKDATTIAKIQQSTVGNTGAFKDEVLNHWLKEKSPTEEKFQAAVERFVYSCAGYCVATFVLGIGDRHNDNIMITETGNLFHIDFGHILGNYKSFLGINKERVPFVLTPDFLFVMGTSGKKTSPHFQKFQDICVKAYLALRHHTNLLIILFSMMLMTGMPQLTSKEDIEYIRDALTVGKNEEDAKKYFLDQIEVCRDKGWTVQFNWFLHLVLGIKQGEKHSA
T3 sequence (P42336 whole entry, canonical isoform): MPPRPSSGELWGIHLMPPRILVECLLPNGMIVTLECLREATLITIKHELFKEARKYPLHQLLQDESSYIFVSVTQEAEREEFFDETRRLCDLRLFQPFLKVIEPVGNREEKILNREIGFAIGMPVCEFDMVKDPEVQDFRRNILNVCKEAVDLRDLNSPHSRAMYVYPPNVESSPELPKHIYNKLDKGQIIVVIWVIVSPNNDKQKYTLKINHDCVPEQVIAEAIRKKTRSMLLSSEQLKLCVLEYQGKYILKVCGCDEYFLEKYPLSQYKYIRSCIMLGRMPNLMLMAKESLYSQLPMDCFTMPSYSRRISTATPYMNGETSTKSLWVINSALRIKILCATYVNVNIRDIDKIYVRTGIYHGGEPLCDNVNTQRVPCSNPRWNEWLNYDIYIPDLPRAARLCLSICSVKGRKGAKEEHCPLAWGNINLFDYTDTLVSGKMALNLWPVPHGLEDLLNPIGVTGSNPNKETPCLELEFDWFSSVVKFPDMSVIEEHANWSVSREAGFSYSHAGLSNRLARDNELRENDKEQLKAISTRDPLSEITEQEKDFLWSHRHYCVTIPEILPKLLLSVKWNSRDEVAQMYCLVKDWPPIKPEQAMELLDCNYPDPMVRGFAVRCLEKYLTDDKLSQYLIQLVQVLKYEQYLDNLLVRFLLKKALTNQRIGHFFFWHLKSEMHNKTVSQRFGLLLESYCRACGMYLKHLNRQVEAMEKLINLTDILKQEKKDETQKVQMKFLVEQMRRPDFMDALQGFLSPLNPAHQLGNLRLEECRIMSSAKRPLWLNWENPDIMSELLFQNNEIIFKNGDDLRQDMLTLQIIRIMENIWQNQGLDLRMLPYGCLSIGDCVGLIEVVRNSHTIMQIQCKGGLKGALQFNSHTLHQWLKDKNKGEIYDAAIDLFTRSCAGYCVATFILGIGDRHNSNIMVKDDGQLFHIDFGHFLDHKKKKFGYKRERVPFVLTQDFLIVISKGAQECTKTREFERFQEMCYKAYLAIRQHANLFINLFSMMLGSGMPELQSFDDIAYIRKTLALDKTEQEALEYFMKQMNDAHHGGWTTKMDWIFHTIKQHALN

Row | Compound | IC50 (Human mTOR (FLAG-TOR); [3]) [µM] | IC50 (PI3K [1]; [4]) [µM] | IC50 (PI3K [2]; [5]) [µM] | IC50 (breast line MDA468) [µM] | IC50 (Human mTOR (FLAG-TOR)) [µM] | IC50 (PI3K [1]; PI3 Kinase γ) [µM] | IC50 (PI3K [2]; PI3 Kinase α) [µM]
1 | O=C(NCCO)Nc1ccc(-c2nc(N3CC4CCC(C3)O4)c3sccc3n2)cc1 [Example 409, 1-(2-hydroxyethyl)-3-{4-[4-(8-oxa-3-azabicyclo[3.2.1]oct-3-yl)thieno[3,2-d]pyrimidin-2-yl]phenyl}urea] | 0.00031 | ≥ 10 | 0.324 | 0.475 | – | – | –
2 | CNC(=O)Nc1ccc(-c2nc(N3CC4CCC(C3)O4)c3cnn(C4CCC(=O)CC4)c3n2)cc1 [Example 63, 1-methyl-3-{4-[4-(8-oxa-3-azabicyclo[3.2.1]oct-3-yl)-1-(4-oxocyclohexyl)-1H-pyrazolo[3,4-d]pyrimidin-6-yl]phenyl}urea] | – | – | – | – | 0.00023 | > 10 | –
3 | CCNC(=O)Nc1ccc(-c2nc(N3CC4CCC(C3)O4)c3sccc3n2)cc1 [Example 407, 1-ethyl-3-{4-[4-(8-oxa-3-azabicyclo[3.2.1]oct-3-yl)thieno[3,2-d]pyrimidin-2-yl]phenyl}urea] | 0.00076 | > 10 | 1.26 | 0.25 | – | – | –
4 | CNC(=O)Nc1ccc(-c2nc(N3CC4CCC(C3)O4)c3cnn(C4CCC5(CC4)OCCO5)c3n2)cc1 [Example 62, 1-{4-[1-(1,4-dioxaspiro[4.5]dec-8-yl)-4-(8-oxa-3-azabicyclo[3.2.1]oct-3-yl)-1H-pyrazolo[3,4-d]pyrimidin-6-yl]phenyl}-3-methylurea] | – | – | – | – | 0.00016 | > 10 | 2.01
5 | N~2~,N~2~-dimethyl-N-{4-[({4-[1-methyl-4-(8-oxa-3-azabicyclo[3.2.1]oct-3-yl)-1H-pyrazolo[3,4-d]pyrimidin-6-yl]phenyl}carbamoyl)amino]phenyl}glycinamide [Example 258] | – | – | – | – | 0.00395 | 1.41 | 0.346
6 | Nc1ccc(-c2nc(N3CC4CCC(C3)O4)c3sccc3n2)cc1 [Example 414, 4-[4-(8-oxa-3-azabicyclo[3.2.1]oct-3-yl)thieno[3,2-d]pyrimidin-2-yl]aniline] | 0.1 | > 10 | – | 30 | – | – | –
7 | Oc1ccc(-c2nc(N3CC4CCC(C3)O4)c3sccc3n2)cc1 [Example 418, 4-[4-(8-oxa-3-azabicyclo[3.2.1]oct-3-yl)thieno[3,2-d]pyrimidin-2-yl]phenol] | 0.034 | > 10 | 6.27 | 17 | – | – | –
8 | CNC(=O)Nc1ccc(-c2nc(N3CC4CCC(C3)O4)c3cnn(C4CCC(O)CC4)c3n2)cc1 (centres unmarked) [Example 108, 1-(4-(4-(8-oxa-3-azabicyclo[3.2.1]octan-3-yl)-1-((1r,4r)-4-hydroxycyclohexyl)-1H-pyrazolo[3,4-d]pyrimidin-6-yl)phenyl)-3-methylurea] | – | – | – | – | 0.00024 | > 10 | 0.882
9 | CS(=O)(=O)N1CCN(Cc2cc3nc(-c4ccc(NC(=O)Nc5cccnc5)cc4)nc(N4CC5CCC(C4)O5)c3s2)CC1 [Example 433, 1-{4-[6-{[4-(methylsulfonyl)piperazin-1-yl]methyl}-4-(8-oxa-3-azabicyclo[3.2.1]oct-3-yl)thieno[3,2-d]pyrimidin-2-yl]phenyl}-3-pyridin-3-ylurea] | 0.00056 | 0.286 | 0.012 | 0.06 | – | – | –
10 | O=C(Nc1ccccc1)Nc1ccc(-c2nc(N3CC4CCC(C3)O4)c3sccc3n2)cc1 [Example 411, 1-{4-[4-(8-oxa-3-azabicyclo[3.2.1]oct-3-yl)thieno[3,2-d]pyrimidin-2-yl]phenyl}-3-phenylurea] | 0.0013 | 2.19 | 0.082 | 0.38 | – | – | –
11 | O=C(Nc1ccncc1)Nc1ccc(-c2nc(N3CC4CCC(C3)O4)c3cnn(CC(F)(F)F)c3n2)cc1 [Example 104, 1-{4-[4-(8-oxa-3-azabicyclo[3.2.1]oct-3-yl)-1-(2,2,2-trifluoroethyl)-1H-pyrazolo[3,4-d]pyrimidin-6-yl]phenyl}-3-pyridin-4-ylurea] | – | – | – | – | 0.00016 | 0.695 | 0.201
12 | N-{4-[({4-[1-methyl-4-(8-oxa-3-azabicyclo[3.2.1]oct-3-yl)-1H-pyrazolo[3,4-d]pyrimidin-6-yl]phenyl}carbamoyl)amino]phenyl}acetamide [Example 259] | – | – | – | – | 0.0024 | 2.72 | 1.05
13 | CNC(=O)Nc1ccc(-c2nc(N3CC4CCC(C3)O4)c3cnn(C4CCC(N5CCN(C)CC5)CC4)c3n2)cc1 (centres unmarked) [Example 329, 1-methyl-3-(4-{1-[4-(4-methylpiperazin-1-yl)cyclohexyl]-4-(8-oxa-3-azabicyclo[3.2.1]oct-3-yl)-1H-pyrazolo[3,4-d]pyrimidin-6-yl}phenyl)urea] | 0.00175 | 4.35 | 0.357 | – | – | – | –
14 | O=C(Nc1ccncc1)Nc1ccc(-c2nc(N3CC4CCC(C3)O4)c3cnn(CC(F)(F)F)c3n2)cc1 [Example 5, 1-{4-[4-(8-oxa-3-azabicyclo[3.2.1]oct-3-yl)-1-(2,2,2-trifluoroethyl)-1H-pyrazolo[3,4-d]pyrimidin-6-yl]phenyl}-3-pyridin-4-ylurea] | – | – | – | – | 0.00019 | 1.03 | 0.168
15 | CNC(=O)Nc1ccc(-c2nc(N3CC4CCC(C3)O4)c3cnn(C4CCC(O)CC4)c3n2)cc1 (centres unmarked) [Example 64, 1-{4-[1-(4-hydroxycyclohexyl)-4-(8-oxa-3-azabicyclo[3.2.1]oct-3-yl)-1H-pyrazolo[3,4-d]pyrimidin-6-yl]phenyl}-3-methylurea] | – | – | – | – | 0.00021 | 5 | 1.31
16 | CNC(=O)Nc1ccc(-c2nc(N3CC4CCC(C3)O4)c3cnn([C@H]4CC[C@@H](O)CC4)c3n2)cc1 [Example 109, 1-(4-(4-(8-oxa-3-azabicyclo[3.2.1]octan-3-yl)-1-((1s,4s)-4-hydroxycyclohexyl)-1H-pyrazolo[3,4-d]pyrimidin-6-yl)phenyl)-3-methylurea] | – | – | – | – | 0.0003 | > 10 | 0.227
17 | Oc1cccc(-c2nc(N3CC4CCC(C3)O4)c3sccc3n2)c1 [Example 417, 3-[4-(8-oxa-3-azabicyclo[3.2.1]oct-3-yl)thieno[3,2-d]pyrimidin-2-yl]phenol] | 0.061 | > 10 | 0.399 | 7.8 | – | – | –
18 | CCNC(=O)Nc1ccc(-c2nc(N3CC4CCC(C3)O4)c3cnn(C4CCC(OC)CC4)c3n2)cc1 (centres unmarked) [Example 301, 1-ethyl-3-{4-[1-(4-methoxycyclohexyl)-4-(8-oxa-3-azabicyclo[3.2.1]oct-3-yl)-1H-pyrazolo[3,4-d]pyrimidin-6-yl]phenyl}urea] | 0.000335 | > 10 | 2.03 | – | – | – | –
19 | CC(C)C(=O)N1CCC(n2ncc3c(N4CC5CCC(C4)O5)nc(-c4ccc(N)cc4)nc32)CC1 [Example 80, 4-[1-(1-isobutyrylpiperidin-4-yl)-4-(8-oxa-3-azabicyclo[3.2.1]oct-3-yl)-1H-pyrazolo[3,4-d]pyrimidin-6-yl]aniline] | – | – | – | – | 0.1 | > 10 | > 10
